Reference: paper PMC5481569, “A Bacteroidetes locus dedicated to fungal 1,6-β-glucan degradation: Unique substrate conformation drives specificity of the key endo-1,6-β-glucanase” (The Journal of Biological Chemistry, 2017)

Assays:
BT3311 = biological target: T1, BT3311 (Bacteroides thetaiotaomicron, UniProt Q8A2J4); assay: isothermal titration calorimetry; format: binding; conditions: 50 mM Na-Hepes, pH 7.5, 25 °C
T1 construct: gene BT_3311; signal peptide (lipoprotein) removed; N-terminal hexahistidine tag; pET28 derivative, E. coli
T1 sequence (Q8A2J4 22-506): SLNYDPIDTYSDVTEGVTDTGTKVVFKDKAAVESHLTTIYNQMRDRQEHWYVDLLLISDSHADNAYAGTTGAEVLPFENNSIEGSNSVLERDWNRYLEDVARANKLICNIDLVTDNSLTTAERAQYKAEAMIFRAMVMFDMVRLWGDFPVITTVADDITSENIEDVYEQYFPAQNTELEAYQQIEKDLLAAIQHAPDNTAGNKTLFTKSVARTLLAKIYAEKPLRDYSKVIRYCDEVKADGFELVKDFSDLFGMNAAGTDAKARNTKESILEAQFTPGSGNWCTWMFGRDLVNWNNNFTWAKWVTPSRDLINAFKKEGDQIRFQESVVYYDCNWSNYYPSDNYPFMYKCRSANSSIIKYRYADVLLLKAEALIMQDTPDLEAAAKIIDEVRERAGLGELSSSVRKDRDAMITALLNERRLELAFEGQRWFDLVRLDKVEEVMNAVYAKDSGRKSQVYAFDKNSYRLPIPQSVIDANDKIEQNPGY
From the text: isothermal titration calorimetry on BT3311

BT3313 = biological target: T2, BT3313 (Bacteroides thetaiotaomicron, UniProt Q8A2J2); assay: isothermal titration calorimetry; format: binding; conditions: 50 mM Na-Hepes, pH 7.5, 25 °C
T2 construct: gene BT_3313; signal peptide (lipoprotein) removed; N-terminal hexahistidine tag; pET28 derivative, E. coli
T2 sequence (Q8A2J2 20-667): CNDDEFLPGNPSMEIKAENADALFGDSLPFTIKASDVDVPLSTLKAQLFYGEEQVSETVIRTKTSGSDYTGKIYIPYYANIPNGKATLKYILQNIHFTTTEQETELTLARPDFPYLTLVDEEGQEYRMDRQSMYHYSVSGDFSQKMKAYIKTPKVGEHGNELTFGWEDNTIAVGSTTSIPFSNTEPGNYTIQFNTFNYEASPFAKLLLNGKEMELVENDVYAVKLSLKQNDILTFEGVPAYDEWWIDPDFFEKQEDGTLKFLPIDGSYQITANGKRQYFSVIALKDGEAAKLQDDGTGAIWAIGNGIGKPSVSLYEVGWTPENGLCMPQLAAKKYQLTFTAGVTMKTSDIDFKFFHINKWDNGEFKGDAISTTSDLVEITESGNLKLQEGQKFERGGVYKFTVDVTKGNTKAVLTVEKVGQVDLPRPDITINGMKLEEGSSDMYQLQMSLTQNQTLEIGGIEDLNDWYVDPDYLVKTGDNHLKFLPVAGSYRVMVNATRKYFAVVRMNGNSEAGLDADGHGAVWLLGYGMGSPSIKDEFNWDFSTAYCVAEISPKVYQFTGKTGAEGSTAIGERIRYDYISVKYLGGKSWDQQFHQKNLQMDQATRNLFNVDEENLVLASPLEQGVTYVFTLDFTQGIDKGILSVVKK
From the text: isothermal titration calorimetry on BT3313

BT3312 = biological target: T3, BT3312 (Bacteroides thetaiotaomicron, UniProt Q8A2J3); assay: glucose release from […]-β-glucotriose (D-glucose detection kit); also crystal structure, […] Å; format: biochemical
T3 construct: gene BT_3312; signal peptide (lipoprotein) removed; N-terminal hexahistidine tag; pET28 derivative, E. coli Tuner; residues 82-427 form the TIM barrel domain
T3 sequence (Q8A2J3 22-496): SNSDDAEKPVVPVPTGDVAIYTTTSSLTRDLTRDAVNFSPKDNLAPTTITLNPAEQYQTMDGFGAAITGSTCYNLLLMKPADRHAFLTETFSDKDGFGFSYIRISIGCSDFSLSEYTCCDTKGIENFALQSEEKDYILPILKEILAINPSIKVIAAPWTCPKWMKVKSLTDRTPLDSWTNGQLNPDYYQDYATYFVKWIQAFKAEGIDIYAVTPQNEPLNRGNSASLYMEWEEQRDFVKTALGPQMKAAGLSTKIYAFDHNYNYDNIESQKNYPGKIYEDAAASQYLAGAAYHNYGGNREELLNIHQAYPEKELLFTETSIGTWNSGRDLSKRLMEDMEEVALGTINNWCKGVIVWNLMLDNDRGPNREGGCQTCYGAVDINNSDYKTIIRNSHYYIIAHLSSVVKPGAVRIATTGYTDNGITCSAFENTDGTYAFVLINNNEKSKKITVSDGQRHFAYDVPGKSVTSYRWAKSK

| Ka (BT3311) | Ka (BT3313) | Ki (BT3312) [µM] | Structure (SMILES) |
| --- | --- | --- | --- |
| 2.1 × 10^4 ± 0.1 | 1.5 × 10^4 ± 0.2 | – | OC[C@H]1O[C@@H](OC[C@H]2O[C@@H](OC[C@H]3O[C@@H](OC[C@H]4O[C@@H](OC[C@H]5O[C@@H](OC[C@H]6O[C@@H](OC[C@H]7OC(O)[C@H](O)[C@@H](O)[C@@H]7O)[C@H](O)[C@@H](O)[C@@H]6O)[C@H](O)[C@@H](O)[C@@H]5O)[C@H](O)[C@@H](O)[C@@H]4O)[C@H](O)[C@@H](O)[C@@H]3O)[C@H](O)[C@@H](O)[C@@H]2O)[C@H](O)[C@@H](O)[C@@H]1O (stereo partly drawn) [1,6-β-Glucoheptaose] |
| 1.6 × 10^4 ± 0.1 | 8.0 × 10^3 ± 0.7 | – | OC[C@H]1O[C@@H](OC[C@H]2O[C@@H](OC[C@H]3O[C@@H](OC[C@H]4O[C@@H](OC[C@H]5O[C@@H](OC[C@H]6OC(O)[C@H](O)[C@@H](O)[C@@H]6O)[C@H](O)[C@@H](O)[C@@H]5O)[C@H](O)[C@@H](O)[C@@H]4O)[C@H](O)[C@@H](O)[C@@H]3O)[C@H](O)[C@@H](O)[C@@H]2O)[C@H](O)[C@@H](O)[C@@H]1O (stereo partly drawn) [1,6-β-Glucohexaose] |
| 8.3 × 10^3 ± 0.3 | 3.6 × 10^3 ± 0.2 | – | OC[C@H]1O[C@@H](OC[C@H]2O[C@@H](OC[C@H]3O[C@@H](OC[C@H]4O[C@@H](OC[C@H]5OC(O)[C@H](O)[C@@H](O)[C@@H]5O)[C@H](O)[C@@H](O)[C@@H]4O)[C@H](O)[C@@H](O)[C@@H]3O)[C@H](O)[C@@H](O)[C@@H]2O)[C@H](O)[C@@H](O)[C@@H]1O (stereo partly drawn) [1,6-β-Glucopentaose] |
| – | – | ~1000 | OC[C@H]1O[C@@H](OC[C@H]2NC[C@H](O)[C@@H](O)[C@@H]2O)[C@H](O)[C@@H](O)[C@@H]1O [compound 5, β-D-Glucopyranosyl-1,6-deoxynojirimycin] |
